Results taken from ChEMBL document CHEMBL3774366, “Synthesis, and docking studies of phenylpyrimidine-carboxamide derivatives bearing 1H-pyrrolo[2,3-b]pyridine moiety as c-Met inhibitors” (Bioorg Med Chem, 2016).

Tests used:
[1] = tested on: A549; assay: Cytotoxicity against human A549 cells after 72 hrs by MTT assay
[2] = tested on: MCF7
Description: (§1) Cytotoxicity against human MCF7 cells after 72 hrs by MTT assay

[3] = tested on: MCF7; assay: cells; conditions: Homo sapiens, MCF7, 72 h
Description: as §1

[4] = cells; conditions: Homo sapiens, PC-3, 72 h
Description: Cytotoxicity against human PC3 cells after 72 hrs by MTT assay

[5] = biological target: Hepatocyte growth factor receptor (Homo sapiens, UniProt P08581); assay: Inhibition of c-Met (unknown origin) using FAM-labeled peptide substrate after 10 mins by mobility shift assay
[6] = tested on: HeLa; assay: Cytotoxicity against human HeLa cells after 72 hrs by MTT assay; format: functional, cell-based
[7] = tested on: HepG2; assay: Cytotoxicity against human HepG2 cells after 72 hrs by MTT assay; format: functional, cell-based; conditions: HepG2, 72 h

Sequence of Hepatocyte growth factor receptor (P08581 whole entry): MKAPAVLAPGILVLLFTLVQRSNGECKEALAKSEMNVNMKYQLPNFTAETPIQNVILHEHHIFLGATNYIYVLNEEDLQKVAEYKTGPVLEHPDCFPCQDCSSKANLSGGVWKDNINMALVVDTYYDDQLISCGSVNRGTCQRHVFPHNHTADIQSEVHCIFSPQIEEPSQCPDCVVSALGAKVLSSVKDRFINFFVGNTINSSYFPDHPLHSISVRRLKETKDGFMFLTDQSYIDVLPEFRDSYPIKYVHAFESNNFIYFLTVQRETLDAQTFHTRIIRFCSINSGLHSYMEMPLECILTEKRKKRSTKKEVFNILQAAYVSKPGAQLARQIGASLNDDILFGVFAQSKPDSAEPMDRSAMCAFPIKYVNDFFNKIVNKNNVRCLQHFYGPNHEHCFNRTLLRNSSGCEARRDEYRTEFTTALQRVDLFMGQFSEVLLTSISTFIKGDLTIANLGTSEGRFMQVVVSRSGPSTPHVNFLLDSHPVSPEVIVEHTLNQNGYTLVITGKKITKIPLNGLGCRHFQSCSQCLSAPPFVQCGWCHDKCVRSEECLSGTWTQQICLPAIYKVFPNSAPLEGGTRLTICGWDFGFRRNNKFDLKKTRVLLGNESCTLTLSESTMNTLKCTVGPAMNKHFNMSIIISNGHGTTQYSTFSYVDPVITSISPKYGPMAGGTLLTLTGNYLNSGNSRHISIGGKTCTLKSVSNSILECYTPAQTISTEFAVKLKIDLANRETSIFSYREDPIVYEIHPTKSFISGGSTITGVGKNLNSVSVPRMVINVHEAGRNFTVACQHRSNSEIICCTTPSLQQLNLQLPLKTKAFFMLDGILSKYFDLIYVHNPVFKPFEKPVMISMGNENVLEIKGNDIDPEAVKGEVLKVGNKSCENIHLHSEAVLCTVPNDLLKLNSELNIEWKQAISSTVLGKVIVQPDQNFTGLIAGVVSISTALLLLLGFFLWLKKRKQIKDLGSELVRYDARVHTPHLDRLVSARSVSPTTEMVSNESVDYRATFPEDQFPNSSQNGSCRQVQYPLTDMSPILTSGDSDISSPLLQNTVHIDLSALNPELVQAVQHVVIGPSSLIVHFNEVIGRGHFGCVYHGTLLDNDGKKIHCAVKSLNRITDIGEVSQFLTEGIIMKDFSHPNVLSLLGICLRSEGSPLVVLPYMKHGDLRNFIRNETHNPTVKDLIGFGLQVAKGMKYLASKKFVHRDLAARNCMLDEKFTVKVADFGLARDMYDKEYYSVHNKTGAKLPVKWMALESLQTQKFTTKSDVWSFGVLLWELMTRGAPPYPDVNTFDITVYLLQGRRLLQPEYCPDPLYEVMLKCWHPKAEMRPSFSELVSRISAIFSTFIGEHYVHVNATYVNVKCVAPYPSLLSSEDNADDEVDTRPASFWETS

SMILES	IC50 ([1]; Homo sapiens, A549, 72 h)	IC50 [2]	IC50 [3]	IC50 [4]	IC50 [5]	IC50 [6]	IC50 [7]	IC50 ([1]; a549)
O=C(Nc1ccc(Oc2ccnc3[nH]ccc23)c(F)c1)c1cc(-c2ccc(F)cc2)ncn1	14.2 µM	Not Active						
O=C(Nc1ccc(Oc2ccnc3[nH]ccc23)cc1)c1cc(-c2ccc(F)cc2)ncn1	13 µM		15.9 µM					
COc1ccc(-c2ccnc(C(=O)Nc3ccc(Oc4ccnc5[nH]ccc45)cc3)n2)cc1	13.3 µM		12.4 µM	17.3 µM				
O=C(Nc1ccc(Oc2ccnc3[nH]ccc23)cc1)c1nccc(-c2cccc(Cl)c2)n1	4.12 µM		10.2 µM	7.8 µM				
COc1ccc(-c2cc(C(=O)Nc3ccc(Oc4ccnc5[nH]ccc45)cc3)ncn2)cc1	4.41 µM		4.45 µM	9.83 µM				
O=C(Nc1ccc(Oc2ccnc3[nH]ccc23)cc1)c1cc(-c2ccccc2)ncn1	0.14 µM		0.02 µM	0.24 µM	0.12 µM	0.4 µM	3.11 µM	
O=C(Nc1ccc(Oc2ccnc3[nH]ccc23)c(F)c1)c1nccc(-c2ccc([N+](=O)[O-])cc2)n1	4.47 µM	Not Active		12.1 µM				
O=C(Nc1ccc(Oc2ccnc3[nH]ccc23)c(F)c1)c1cc(-c2ccc(Cl)cc2)ncn1	3.36 µM		26.9 µM	3.2 µM				
O=C(Nc1ccc(Oc2ccnc3[nH]ccc23)c(F)c1)c1cc(-c2ccc(Br)cc2)ncn1	6.98 µM		10.3 µM	11.3 µM				
Cc1ccc(-c2ccnc(C(=O)Nc3ccc(Oc4ccnc5[nH]ccc45)c(F)c3)n2)cc1	1.15 µM		7.17 µM	0.52 µM	3.4 µM	5.51 µM	16.4 µM	
COc1ccc(-c2cc(C(=O)Nc3ccc(Oc4ccnc5[nH]ccc45)c(F)c3)ncn2)cc1	4.21 µM		10.4 µM	2.57 µM				
Cc1ccc(-c2cc(C(=O)Nc3ccc(Oc4ccnc5[nH]ccc45)cc3)ncn2)cc1	5.41 µM		1.62 µM	9.88 µM				
Cc1ccc(-c2cc(C(=O)Nc3ccc(Oc4ccnc5[nH]ccc45)c(F)c3)ncn2)cc1	8.6 µM		6.73 µM	24.9 µM				
O=C(Nc1ccc(Oc2ccnc3[nH]ccc23)cc1)c1cc(-c2ccc(Br)cc2)ncn1	9.87 µM		3.84 µM	2.61 µM				
Cc1ccc(-c2ccnc(C(=O)Nc3ccc(Oc4ccnc5[nH]ccc45)cc3)n2)cc1	2.38 µM		6.41 µM	6.14 µM				
O=C(Nc1ccc(Oc2ccnc3[nH]ccc23)c(F)c1)c1nccc(-c2ccc(Cl)cc2)n1	8.94 µM		9.66 µM	14.6 µM				
O=C(Nc1ccc(Oc2ccnc3[nH]ccc23)cc1)c1cc(-c2ccc(C(F)(F)F)cc2)ncn1	9.38 µM		6.24 µM	2.16 µM				
COc1ccc(-c2ccnc(C(=O)Nc3ccc(Oc4ccnc5[nH]ccc45)c(F)c3)n2)cc1	5.43 µM		8.96 µM	14.1 µM				
O=C(Nc1ccc(Oc2ccnc3[nH]ccc23)c(F)c1)c1nccc(-c2cccc(Cl)c2)n1	0.45 µM		1.58 µM	1.38 µM	2.2 µM	3.35 µM	9.34 µM	
O=C(Nc1ccc(Oc2ccnc3[nH]ccc23)cc1)c1cc(-c2ccc(Cl)cc2)ncn1	6.53 µM		7.77 µM	15.6 µM				
O=C(Nc1ccc(Oc2ccnc3[nH]ccc23)c(F)c1)c1cc(-c2ccccc2)ncn1	0.18 µM		4.64 µM	0.04 µM	0.98 µM	2.86 µM	9.61 µM	
O=C(Nc1ccc(Oc2ccnc3[nH]ccc23)cc1)c1nccc(-c2ccc(Cl)cc2)n1	22.4 µM	Not Active						
O=C(Nc1ccc(Oc2ccnc3[nH]ccc23)c(F)c1)c1cc(-c2ccc(C(F)(F)F)cc2)ncn1	2.22 µM		2.84 µM	4.12 µM				
O=C(Nc1ccc(Oc2ccnc3[nH]ccc23)cc1)c1nccc(-c2ccc(F)cc2)n1		Not Active						Not Active
